Assay results as given in patent publication EP3156398A1, “AGONISTS OF THE CHEMOKINE RECEPTOR CXCR3” (Friedrich-Alexander-Universität Erlangen-Nürnberg, priority 2015, dated 2017).

Experiments:
CXCR3 = molecular target: T1, CXCR3 (Homo sapiens, UniProt P49682); assay: [35S]GTPγS incorporation assay; assay type: biochemical; details: for CXCR3 Efficacy (%) ± SEM / Emax: % of CXCL11 mediated effect; for CXCR3 Efficacy (%) ± SEM / CXCR3 pEC50 ± SEM / Emax: membrane preparations of HEK293T stably expressing CXCR3; for CXCR3 pEC50 ± SEM: mean of three experiments in triplicate; for CXCR3 mediated G protein activation (result in words): [35S]GTPγS incorporation; for Emax: read-out: CXCR3 Efficacy (%) ± SEM
T1 construct: expressed in transfected cells; host or cells: HEK293 / HEK293T cells, stably transfected; membrane preparations
T1 sequence (P49682 1-368): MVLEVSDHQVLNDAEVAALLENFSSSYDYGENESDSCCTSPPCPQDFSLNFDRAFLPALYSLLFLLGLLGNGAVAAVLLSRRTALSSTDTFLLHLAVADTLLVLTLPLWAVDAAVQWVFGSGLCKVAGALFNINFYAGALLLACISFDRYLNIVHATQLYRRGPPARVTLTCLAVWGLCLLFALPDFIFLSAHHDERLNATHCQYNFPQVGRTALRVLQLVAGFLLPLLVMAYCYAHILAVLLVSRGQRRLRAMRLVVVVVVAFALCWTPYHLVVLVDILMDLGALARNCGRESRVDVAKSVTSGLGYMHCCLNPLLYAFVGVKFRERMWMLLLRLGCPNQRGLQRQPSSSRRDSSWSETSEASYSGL
Method: Membrane preparation for allosteric radioligand RAMX3 displacement and [^35S]GTPγS incorporation assays: The human embryonic kidney (HEK) cells stably expressing the human CXCR3 receptor were cultured in 150-mm cell culture plates in DMEM/F-12 supplemented with 10% fetal bovine serum (FBS), 2 mM L-glutamine, 1% penicillin-streptomycin, 300 µgmL^-1 Zeocin and incubated at 37 °C in a humid atmosphere with 5% CO2. At 100% confluency cells were washed with PBS twice, treated with Tris EDTA buffer (10 mM Tris, 0.5 mM EDTA, 5 mM KCl, 140 mM NaCl, pH 7.4), and harvested using a cell scraper. Cells were pelleted at 1100×g for 8 min at 4 °C, resuspended in Tris-EDTA-MgCl2 buffer (50mM Tris, 5 mM EDTA, 1.5 mM CaCl2, 5 mM MgCl2, 5 mM KCl, 120 mM NaCl, pH 7.4) and followed by lysis with an Ultra-Turrax. After centrifugation at 50,000•g, at 4°C for 18 min the membranes were resuspended in the binding buffer (50 mM Tris, 1 mM EDTA, 5 mM MgCl2 and subsequently homogenized with a glass-Teflon homogenizer (20 strokes). The homogenized membranes were shock-frozen in liquid nitrogen and stored at -80°C. The protein concentration was determined with the Lowry method with bovine serum albumin used as a standard.^35
[^35S]GTPγS incorporation assay: The [^35S]GTPγS incorporation assay was performed on membrane preparations of stably transfected HEK293 cells that expressed the CXCR3 receptor. The assay was carried out in 96-well plates at the final volume of 200 µL. The incubation buffer contained 20 mM HEPES, 10 mM MgCl2•6H20,100 mM NaCl and 100 mg/L saponin (pH 7.4). Membranes (30 µgmL^-1 of membrane protein), various concentrations of test compound and CXCL11, and 1 µM GDP were preincubated in the absence of [^35S]GTPγS for 30 min at 37 °C. After the addition of 0.10 nM [^35S]GTPγS membranes were incubated for additional 30 min at 37 °C. Incubation was terminated by filtration through Whatman GF/B filters soaked with ice cold PBS. The filter-bound radioactivity was measured as described above. Three to four experiments per compound were performed with each concentration in triplicate.
The activation of G proteins was explored in terms of CXCR3 mediated [^35S]GTPγS incorporation. In the [^35S]GTPγS incorporation assay the membrane preparations of HEK293T cells stably expressing CXCR3 were used. The activation of G proteins was monitored as the incorporation of [^35S]GTPγS and thus increase in the incorporated radioactivity. The potency and efficacy of the novel compounds was first compared to the reference compound 46/VUF10661. […] Table 1. The ability of the 46/VUF10661 based positive allosteric modulators to activate CXCR3 as measured in the [35S]GTPγS incorporation assay.[a]

CXCR3-PK1 = molecular target: T2, CXCR3-PK1 (Homo sapiens, UniProt P49682); assay: β-arrestin 2 recruitment assay (PathHunter, DiscoveRx), CXCR3-PK1 construct; assay type: cell-based; details: for CXCR3-PK1 pEC50 ± SEM: HEK293-T cells, PathHunter, two to three experiments in triplicate
T2 construct: expressed in transfected cells; host or cells: HEK293 cells stably expressing beta-gal enzyme acceptor (PathHunter, DiscoveRx), transiently transfected
T2 sequence (P49682 1-368): T1 sequence (P49682 1-368)
Method: β-arrestin 2 recruitment assay: The measurement of β-arrestin recruitment was performed utilizing the PathHunter assay purchased from DiscoveRx (DiscoveRx, Birmingham, U.K.) according to the manufacturer's protocol. HEK293 cells stably expressing β-gal enzyme acceptor were transiently transfected with the ProLink (PK1) tagged wildtype CXCR3 receptor using the TransIT-293 transfection reagent from Mirus (purchased from MoBiTec, Goettingen, Germany). The assay was carried out in 384-well plates containing 2000 cells in 20 µL. After incubation at 37°C (5% CO2, 95% relative humidity) overnight, various concentrations of test compounds or CXCL11 (prepared in PBS, pH 7.4, containing 0.20% BSA) were added and the incubation continued for 4 h. Detection mix was then added and incubated for further 60 min at room temperature. Chemiluminescence was determined with a microplate reader Clariostar (BMG labtech, Ortenberg, Germany).
The ability of the novel ligands according to the present invention to induce CXCR3-mediated β-arrestin 2 recruitment was investigated in the assay system PathHunter (DiscoveRx), which detects the recruitment of β-amestin 2 to the activated receptor using β-galactosidase (β-gal) enzyme fragment complementation. The inventors used two different ProLink tags, ProLink1 (PK1) and ProLink2 (PK2), of which PK2 has higher affinity for the enzyme acceptor to detect weak protein-protein interactions. The CXCR3-PK2 construct is readily able to detect the differences in the propensity of CXCL11 and CXCL10 to induce β-arrestin 2 recruitment at CXCR3. […] Table 3. Ability of the 46/VUF10661 based positive allosteric modulators to activate the CXCR3 as measured in the β-arrestin 2 recruitment assay (PathHunter, DiscoveRx).[a]

| Structure (SMILES) | CXCR3 Efficacy (%) ± SEM (CXCR3) | CXCR3 pEC50 ± SEM (CXCR3) | CXCR3-PK1 pEC50 ± SEM (CXCR3-PK1) | CXCR3 mediated G protein activation (result in words) (CXCR3) | Emax (CXCR3) | β-arrestin 2 recruitment, intrinsic agonism (result in words) (CXCR3-PK1) |
| --- | --- | --- | --- | --- | --- | --- |
| CC(C)(C)OC(=O)N[C@@H](CCCCNC(=O)[C@@H]1Cc2ccccc2CN1C(=O)CCC(=O)c1ccco1)C(=O)NCC(c1ccccc1)c1ccccc1 [Compound 20, Tert-butyl ((S)-1-((2,2-diphenylethyl)amino)-6-((S)-2-(4-(furan-2-yl)-4-oxobutanoyl)-1,2,3,4-tetrahydroisoquinoline-3-carboxamido)-1-oxohexan-2-yl)carbamate] | No effect | No effect | No effect | – | – | – |
| CC(C)(C)OC(=O)N[C@@H](CCCCNC(=O)[C@@H]1Cc2ccccc2CN1C(=O)CCC(=O)c1cccs1)C(=O)NCC(c1ccccc1)c1ccccc1 [Compound 19, Tert-butyl ((S)-1-((2,2-diphenylethyl)amino)-1-oxo-6-((S)-2-(4-oxo-4-(thiophen-2-yl)butanoyl)-1,2,3,4-tetrahydroisoquinoline-3-carboxamido)hexan-2-yl)carbamate] | No effect | No effect | No effect | – | – | – |
| CN1CCN(C(=O)CCC(=O)N2Cc3ccccc3C[C@H]2C(=O)NCCCC[C@H](NC(=O)OC(C)(C)C)C(=O)NCC(c2ccccc2)c2ccccc2)CC1.O=C(O)C(F)(F)F [Compound 18, 4-(4-((S)-3-(((S)-5-((tert-butoxycarbonyl)amino)-6-((2,2-diphenylethyl)amino)-6-oxohexyl)carbamoyl)-3,4-dihydroisoquinolin-2(1H)-yl)-4-oxobutanoyl)-1-methylpiperazin-1-ium 2,2,2-trifluoroacetate] | No effect | No effect | No effect | no effect | – | – |
| CC(C)(C)OC(=O)N[C@@H](CCCCNC(=O)[C@@H]1Cc2ccccc2CN1C(=O)CCC(=O)c1ccc(S(C)(=O)=O)cc1)C(=O)NCC(c1ccccc1)c1ccccc1 [Compound 15, Tert-butyl ((S)-1-((2,2-diphenylethyl)amino)-6-((S)-2-(4-(4-(methylsulfonyl)phenyl)-4-oxobutanoyl)-1,2,3,4-tetrahydroisoquinoline-3-carboxamido)-1-oxohexan-2-yl)carbamate] | – | 5.91±0.20 | No effect | – | 25 ± 3% | complete loss of intrinsic agonistic properties |
| CC(C)(C)OC(=O)N[C@@H](CCCCNC(=O)[C@@H]1Cc2ccccc2CN1C(=O)CCC(=O)N1CCCCC1)C(=O)NCC(c1ccccc1)c1ccccc1 [Compound 16, Tert-butyl ((S)-1-((2,2-diphenylethyl)amino)-1-oxo-6-((S)-2-(4-oxo-4-(piperidin-1-yl)butanoyl)-1,2,3,4-tetrahydroisoquinoline-3-carboxamido)hexan-2-yl)carbamate] | No effect | No effect | No effect | no reactivity was observed | – | – |
| CC(C)(C)OC(=O)N[C@@H](CCCCNC(=O)[C@@H]1Cc2ccccc2CN1C(=O)CCC(=O)c1ccc(F)cc1)C(=O)NCC(c1ccccc1)c1ccccc1 [Compound 13, Tert-butyl ((S)-1-((2,2-diphenylethyl)amino)-6-((S)-2-(4-(4-fluorophenyl)-4-oxobutanoyl)-1,2,3,4-tetrahydroisoquinoline-3-carboxamido)-1-oxohexan-2-yl)carbamate] | – | 6.29±0.31 | No effect | – | 20 ± 3% | complete loss of intrinsic agonistic properties |
